Results as given in patent US20080021024A1, “Metalloprotease inhibitors” (Alantos Pharmaceuticals Holding, Inc., priority 2006, published 2008).

The molecules below were run against T1, catalytic domain of MMP-13 enzyme (Homo sapiens, UniProt P45452) (assay: Assay for determining MMP-13 inhibition (fluorescent substrate)). Settings: Table 1, Summary of MMP-13 Activity for Compounds of Formula I.
T1 construct: 10 μL of a 50 nM stock solution of catalytic domain of MMP-13 enzyme (produced by Alantos) is added; made in house
Type: biochemical
Protocol: The MMP-13 inhibiting activity of the MMP-13 inhibiting compounds of the present invention may be measured using any suitable assay known in the art. A standard in vitro assay for MMP-13 inhibiting activity is described in Example 3000.
The typical assay for MMP-13 activity is carried out in assay buffer comprised of 50 mM Tris, pH 7.5, 150 mM NaCl, 5 mM CaCl2 and 0.05% Brij-35. Different concentrations of tested compounds are prepared in assay buffer in 50 μL aliquots. 10 μL of a 50 nM stock solution of catalytic domain of MMP-13 enzyme (produced by Alantos) is added to the compound solution. The mixture of enzyme and compound in assay buffer is thoroughly mixed and incubated for 10 min at room temperature. Upon the completion of incubation, the assay is started by addition of 40 μL of a 12.5 μM stock solution of MMP-13 fluorescent substrate (Calbiochem, Cat. No. 444235). The time-dependent increase in fluorescence is measured at the 320 nm excitation and 390 nm emission by automatic plate multireader. The IC50 values are calculated from the initial reaction rates.

`Cc1cc(CNC(=O)c2cc(NS(=O)(=O)Cc3ccc(-c4nn[nH]n4)cc3)ncn2)ccc1F` was tested. Which IC50 did it give?
Its IC50 is < 1 µM.

How did the IC50 turn out when `O=C(NCc1ccc(-c2nnn[nH]2)cc1)c1cc(NS(=O)(=O)Cc2ccccc2)ncn1` was run?
Its IC50 is > 0.005 µM.

Which IC50 does the source give for `CC(C(=O)Nc1cc(C(=O)NCc2ccc(F)cc2)ncn1)c1ccc(-c2nnn[nH]2)cc1` (centres unmarked) here?
Its IC50 is > 0.005 µM.

For `N#Cc1ccc(CC(=O)Nc2cc(C(=O)NCc3ccc(F)cc3)ncn2)cc1`, which IC50 is on record?
The IC50 was < 1 µM.

With `CC(C)(C(=O)Nc1cc(C(=O)NCc2ccc(F)cc2)ncn1)c1ccc(-c2nnn[nH]2)cc1` as the molecule, how does the IC50 read?
The IC50 was < 1 µM.

`O=C(Cc1ccc2c(c1)CCO2)Nc1cc(C(=O)NCc2ccc(-c3nnn[nH]3)cc2)ncn1` was tested. Which IC50 did it give?
Its IC50 is < 1 µM.

`CS(=O)(=O)c1ccc(CC(=O)Nc2cc(C(=O)NCc3ccc(-c4nnn[nH]4)cc3)ncn2)cc1` was tested. Which IC50 did it give?
Its IC50 is > 0.005 µM.

Which IC50 does the source give for `N#Cc1ccc(CNC(=O)c2cc(NC(=O)Cc3ccc4c(c3)OCO4)ncn2)cc1` here?
The IC50 was < 1 µM.
